Experimental data: patent publication US6774086B2, “3-Aminocarbonyl-substituted benzoylcyclohexanediones” (Bayer CropScience GmbH, priority 2001, dated 2004)

Key:
Format in all cases: in vivo
Sinapis arvensis [1] = experiment: pre-emergence herbicidal action; conditions: 320 g a.i./ha, scored visually after 3 to 4 weeks vs untreated controls
Excerpt: (§1) Seeds of mono- and dicotyledonous harmful plants are placed in sandy loam in cardboard pots and covered with soil. The compounds according to the invention, which are formulated in the form of wettable powders or emulsion concentrates, are then applied to the surface of the soil cover as aqueous suspension or emulsion at a dosage rate stated in table B1 with an application rate of 600 to 800 l of water per ha (converted). After the treatment, the pots are placed into a greenhouse and kept under good growth conditions for the harmful plants. The damage to the plants or their emergence is scored visually after the test plants have emerged after an experimental time of 3 to 4 weeks by comparison with untreated controls.

Amaranthus retroflexus [2] = experiment: pre-emergence herbicidal action; conditions: 320 g a.i./ha, scored visually after 3 to 4 weeks vs untreated controls
Excerpt: as §1

Stellaria media [3] = experiment: pre-emergence herbicidal action; conditions: 320 g a.i./ha, scored visually after 3 to 4 weeks vs untreated controls
Excerpt: as §1

Oryza sativa = experiment: post-emergence action, crop plant damage
Monochoria vaginalis = experiment: post-emergence action against harmful plants
Protocol: (§2) Seeds of mono- and dicotyledonous harmful plants are placed in sandy loam in cardboard pots, covered with soil and grown in the greenhouse under good growth conditions. 2 to 3 weeks after sowing, the test plants are treated in the three-leaf stage. The compounds according to the invention, which are formulated as wettable powders or as emulsion concentrates, are sprayed at a dosage rate stated in table B2 to the surface of the green plant parts at an application rate of 600 to 800 l of water per ha (converted). After the test plants have been left to stand in the greenhouse for approx. 3 to 4 weeks under optimal growth conditions, the effect of the compounds is scored by comparison with compounds of the prior art.
(§3) In further greenhouse experiments, seeds of barley and of monocotyledonous and dicotyledonous harmful plants are placed in sandy loam, covered with soil and placed in the greenhouse until the plants have developed two to three true leaves. Then, they are treated with the compounds of the formula (I) according to the invention as described above under item 2.

Sagittaria pygmaea = experiment: post-emergence action against harmful plants
Protocol: as §2, §3

Cyperus serotinus = experiment: post-emergence action against harmful plants
Protocol: as §2, §3

Sinapis arvensis [4] = experiment: post-emergence herbicidal action; conditions: three-leaf stage, 320 g a.i./ha, scored after approx. 3 to 4 weeks
Protocol: as §2

Amaranthus retroflexus [5] = experiment: post-emergence herbicidal action; conditions: three-leaf stage, 320 g a.i./ha, scored after approx. 3 to 4 weeks
Protocol: as §2

Stellaria media [6] = experiment: post-emergence herbicidal action; conditions: three-leaf stage, 320 g a.i./ha, scored after approx. 3 to 4 weeks
Protocol: as §2

| SMILES | Action against harmful plants SINAL (Sinapis arvensis [1]) | Action against harmful plants AMARE (Amaranthus retroflexus [2]) | Action against harmful plants STEME (Stellaria media [3]) | Crop plant damage ORYSP (Oryza sativa; 90 g a.i./ha) | Action against harmful plants MOOVA (Monochoria vaginalis; 90 g a.i./ha) | Action against harmful plants SAGPY (Sagittaria pygmaea; 90 g a.i./ha) | Action against harmful plants CYPSE (Cyperus serotinus; 90 g a.i./ha) | Action against harmful plants SINAL (Sinapis arvensis [4]) | Action against harmful plants AMARE (Amaranthus retroflexus [5]) | Action against harmful plants STEME (Stellaria media [6]) | Crop plant damage ORYSP (Oryza sativa; 50 g a.i./ha) | Action against harmful plants MOOVA (Monochoria vaginalis; 50 g a.i./ha) | Action against harmful plants SAGPY (Sagittaria pygmaea; 50 g a.i./ha) | Action against harmful plants CYPSE (Cyperus serotinus; 50 g a.i./ha) |
| --- | --- | --- | --- | --- | --- | --- | --- | --- | --- | --- | --- | --- | --- | --- |
| CN(C(=O)COc1c(S(C)(=O)=O)ccc(C(=O)C2=C(O)CCCC2=O)c1Cl)c1ccccc1 [Compound 1.28] | 90% | 90% | 90% | – | – | – | – | – | – | – | – | – | – | – |
| CCN(CC)C(=O)COc1c(Cl)ccc(C(=O)C2=C(O)CCCC2=O)c1Cl [Compound 3.9] | 80% | 90% | 90% | 0% | 95% | 90% | 95% | 90% | 80% | 100% | – | – | – | – |
| CCN(CC)C(=O)COc1c(Br)ccc(C(=O)C2=C(O)CCCC2=O)c1Br [Compound 3.65] | 80% | 90% | 90% | – | – | – | – | 90% | 80% | 100% | 0% | 99% | 80% | 99% |
